The nature of this experiment: Pupil diameter after instillation of pilocarpine 1% before vs after TBUT (digital imaging system). In kind it is in vivo. The following applies: 30 μL; for mean decrease from the baseline in pupil diameter: at 30 minutes, 6 normal eyes. Here is the method:
The following study examines the efficacy of pilocarpine, 1% in constricting the pupil and tropicamide, 1% in dilating the pupil when instilled before and after TBUT. Baseline pupil diameters were determined in 12 normal eyes using a digital imaging system (and controlling illumination). Six (6) of the eyes were dosed with 30 μL of pilocarpine and 6 with 30 μL of tropicamide, all before TBUT. Pupil diameter was measured every minute for 30 minutes after instillation. One day later, the same procedures were repeated in the same eyes, except that the subjects were instructed to stare without blinking (≧6 seconds) before the ophthalmic agents were instilled.

As for `CC[C@@H]1C(=O)OC[C@@H]1Cc1cncn1C` [Pilocarpine, pilocarpine], the “mean decrease from the baseline in pupil diameter” value runs as follows: (instillation after TBUT) 2.44 units; (instillation before TBUT) 1.12 units. For the same compound, the “greater pupil constriction with instillation after TBUT vs before TBUT” value (over the 30 minute period) came to 29.44%.
